Data reported in PubChem BioAssay AID1745844 (Carcinogenic Potency Database (CPDB), 2022).
The source made the active and inactive calls. No rule for the calls is given here.

System: rodent lifetime carcinogenesis bioassay, tumor incidence TD50
Assay: carcinogenic potency in animals, long-term in vivo studies, CPDB compilation (AID 1745844)

## Nc1ccc(-c2ccc(N)c(Cl)c2)cc1Cl
dog, strain Beagle, females, given by capsule, site: liver, lesion: several types, types named in the paper, dosed 369 weeks, study length 370 weeks
  carcinogen call: positive
dog, strain Beagle, females, given by capsule, site: urinary bladder, lesion: several types, types named in the paper, dosed 369 weeks, study length 370 weeks
  carcinogen call: positive
mouse, strain ICR/Jcl, males, in feed, site: liver, lesion: hepatoma, dosed 52 weeks, study length 52 weeks
  carcinogen call: positive
rat, strain Charles River CD (Sprague-Dawley), females, in feed, site: liver, lesion: one or several types, types not named, dosed 69 weeks, study length 69 weeks
  carcinogen call: negative (inactive)
rat, strain Charles River CD (Sprague-Dawley), females, in feed, site: mammary gland, lesion: adenocarcinoma, dosed 69 weeks, study length 69 weeks
  TD50: 18.3 mg/kg/day
rat, strain Charles River CD (Sprague-Dawley), males, in feed, site: Zymbal's gland, lesion: squamous-cell carcinoma, dosed 69 weeks, study length 69 weeks
  TD50: 60.1 mg/kg/day
rat, strain Charles River CD (Sprague-Dawley), males, in feed, site: all sites, lesion: granulocytic leukemia, dosed 69 weeks, study length 69 weeks
  TD50: 66.2 mg/kg/day
rat, strain Charles River CD (Sprague-Dawley), males, in feed, site: liver, lesion: one or several types, types not named, dosed 69 weeks, study length 69 weeks
  carcinogen call: negative (inactive)
rat, strain Charles River CD (Sprague-Dawley), males, in feed, site: mammary gland, lesion: adenocarcinoma, dosed 69 weeks, study length 69 weeks
  TD50: 69.6 mg/kg/day

## C[N+](C)(C)CCCl
mouse, strain B6AKF1, females, oral dosing, site: any site (literature study), lesion: several types, types named in the paper, dosed 76 weeks, study length 76 weeks
  TD50: 33.5 mg/kg/day
mouse, strain B6AKF1, males, oral dosing, site: any site (literature study), lesion: several types, types named in the paper, dosed 76 weeks, study length 76 weeks
  TD50: 21.3 mg/kg/day
mouse, strain B6AKF1, males, oral dosing, site: liver, lesion: hepatoma, dosed 76 weeks, study length 76 weeks
  TD50: 11.4 mg/kg/day
mouse, strain B6C3F1, females, in feed, site: any site (literature study), lesion: several types, types named in the paper, dosed 102 weeks, study length 102 weeks
  carcinogen call: negative (inactive)
mouse, strain B6C3F1, females, oral dosing, site: any site (literature study), lesion: several types, types named in the paper, dosed 76 weeks, study length 76 weeks
  TD50: 57.4 mg/kg/day
mouse, strain B6C3F1, males, in feed, site: any site (literature study), lesion: several types, types named in the paper, dosed 102 weeks, study length 102 weeks
  TD50: 3240 mg/kg/day (inactive)
mouse, strain B6C3F1, males, in feed, site: liver, lesion: hepatocellular adenoma + hepatocellular carcinoma + neoplastic nodule, dosed 102 weeks, study length 102 weeks
  TD50: 599 mg/kg/day
mouse, strain B6C3F1, males, oral dosing, site: any site (literature study), lesion: several types, types named in the paper, dosed 76 weeks, study length 76 weeks
  TD50: 5.19 mg/kg/day
mouse, strain B6C3F1, males, oral dosing, site: liver, lesion: hepatoma, dosed 76 weeks, study length 76 weeks
  TD50: 9.38 mg/kg/day
rat, strain Fischer 344, females, in feed, site: any site (literature study), lesion: several types, types named in the paper, dosed 108 weeks, study length 108 weeks
  carcinogen call: negative (inactive)
rat, strain Fischer 344, females, in feed, site: liver, lesion: hepatocellular adenoma + hepatocellular carcinoma + neoplastic nodule, dosed 108 weeks, study length 108 weeks
  TD50: 8090 mg/kg/day
rat, strain Fischer 344, males, in feed, site: any site (literature study), lesion: several types, types named in the paper, dosed 108 weeks, study length 108 weeks
  TD50: 3360 mg/kg/day
rat, strain Fischer 344, males, in feed, site: pancreatic islets, lesion: islet-cell adenoma, dosed 108 weeks, study length 108 weeks
  TD50: 458 mg/kg/day (inactive)

## CCCc1c(OCCCCc2nn[nH]n2)ccc(C(C)=O)c1O
mouse, strain B6C3F1, females, in feed, site: liver, lesion: hepatocellular adenoma, dosed 104 weeks, study length 104 weeks
  TD50: 369 mg/kg/day
mouse, strain B6C3F1, females, in feed, site: liver, lesion: hepatocellular carcinoma, dosed 104 weeks, study length 104 weeks
  TD50: 112 mg/kg/day
mouse, strain B6C3F1, males, in feed, site: liver, lesion: hepatocellular adenoma, dosed 104 weeks, study length 104 weeks
  TD50: 2740 mg/kg/day
mouse, strain B6C3F1, males, in feed, site: liver, lesion: hepatocellular carcinoma, dosed 104 weeks, study length 104 weeks
  TD50: 426 mg/kg/day

## Cc1ccc2ncccc2c1
rat, strain Fischer 344, females, in feed, site: liver, lesion: hyperplastic nodule, dosed 104 weeks, study length 104 weeks
  TD50: 230 mg/kg/day (inactive)
rat, strain Fischer 344, males, in feed, site: liver, lesion: hyperplastic nodule, dosed 104 weeks, study length 104 weeks
  TD50: 123 mg/kg/day (inactive)

## Nc1nc(=S)c2ncn([C@H]3C[C@H](O)[C@@H](CO)O3)c2[nH]1
mouse, strain B6C3F1, females, i.p., site: any site (literature study), lesion: several types, types named in the paper, dosed 43 weeks, study length 77 weeks
  TD50: 4.48 mg/kg/day
mouse, strain B6C3F1, females, i.p., site: lung, lesion: alveolar/bronchiolar adenoma + alveolar/bronchiolar carcinoma, dosed 43 weeks, study length 77 weeks
  TD50: 6.87 mg/kg/day
rat, strain Sprague-Dawley, females, i.p., site: any site (literature study), lesion: several types, types named in the paper, dosed 52 weeks, study length 78 weeks
  TD50: 4.11 mg/kg/day
rat, strain Sprague-Dawley, females, i.p., site: ear canal, lesion: carcinoma, NOS + squamous-cell carcinoma, dosed 52 weeks, study length 78 weeks
  TD50: 2.1 mg/kg/day
rat, strain Sprague-Dawley, females, i.p., site: ear canal, lesion: squamous-cell carcinoma, dosed 52 weeks, study length 78 weeks
  TD50: 2.31 mg/kg/day
rat, strain Sprague-Dawley, males, i.p., site: all sites, lesion: lymphoma, dosed 52 weeks, study length 78 weeks
  TD50: 5.75 mg/kg/day
rat, strain Sprague-Dawley, males, i.p., site: ear canal, lesion: carcinoma, NOS + squamous-cell carcinoma, dosed 52 weeks, study length 78 weeks
  TD50: 4.38 mg/kg/day

## COc1cc(S(C)=O)ccc1-c1nc2ccncc2[nH]1 (stereo not given)
rat, strain Fischer 344, females, in feed, site: adrenal medulla, lesion: pheochromocytoma, benign, dosed 104 weeks, study length 104 weeks
  TD50: 450 mg/kg/day
rat, strain Fischer 344, females, in feed, site: adrenal medulla, lesion: several types, types named in the paper, dosed 104 weeks, study length 104 weeks
  TD50: 385 mg/kg/day
rat, strain Fischer 344, males, in feed, site: adrenal medulla, lesion: pheochromocytoma, benign, dosed 104 weeks, study length 104 weeks
  TD50: 45.4 mg/kg/day
rat, strain Fischer 344, males, in feed, site: adrenal medulla, lesion: pheochromocytoma, malignant, dosed 104 weeks, study length 104 weeks
  TD50: 481 mg/kg/day
rat, strain Fischer 344, males, in feed, site: adrenal medulla, lesion: several types, types named in the paper, dosed 104 weeks, study length 104 weeks
  TD50: 38.8 mg/kg/day

## O=S(=O)(O)c1ccc(N=Nc2cc(S(=O)(=O)O)c3ccccc3c2O)c2ccccc12
mouse, strain ASH-CS1, females, in feed, site: liver, lesion: one or several types, types not named, dosed 80 weeks, study length 80 weeks
  carcinogen call: negative (inactive)
mouse, strain ASH-CS1, females, in feed, site: lung, lesion: papillary adenoma, dosed 80 weeks, study length 80 weeks
  TD50: 32900 mg/kg/day (inactive)
mouse, strain ASH-CS1, males, in feed, site: liver, lesion: adenoma, dosed 80 weeks, study length 80 weeks
  carcinogen call: negative (inactive)
mouse, strain ASH-CS1, males, in feed, site: liver, lesion: nodular hyperplasia, dosed 80 weeks, study length 80 weeks
  carcinogen call: negative (inactive)
mouse, strain ASH-CS1, males, in feed, site: lung, lesion: papillary adenoma, dosed 80 weeks, study length 80 weeks
  TD50: 12300 mg/kg/day (inactive)
mouse, strain B6C3F1, females, in feed, site: any site (literature study), lesion: several types, types named in the paper, dosed 103 weeks, study length 104 weeks
  carcinogen call: negative (inactive)
mouse, strain B6C3F1, males, in feed, site: any site (literature study), lesion: several types, types named in the paper, dosed 103 weeks, study length 103 weeks
  carcinogen call: negative (inactive)
rat, strain Fischer 344, females, in feed, site: any site (literature study), lesion: several types, types named in the paper, dosed 103 weeks, study length 104 weeks
  TD50: 7180 mg/kg/day
rat, strain Fischer 344, females, in feed, site: clitoral gland, lesion: sebaceous adenoma, dosed 103 weeks, study length 104 weeks
  TD50: 16400 mg/kg/day
rat, strain Fischer 344, females, in feed, site: uterus, lesion: endometrial stromal polyp, dosed 103 weeks, study length 104 weeks
  TD50: 3270 mg/kg/day (inactive)
rat, strain Fischer 344, males, in feed, site: any site (literature study), lesion: several types, types named in the paper, dosed 103 weeks, study length 104 weeks
  TD50: 1860 mg/kg/day (inactive)
rat, strain Fischer 344, males, in feed, site: liver, lesion: hepatocellular adenoma + hepatocellular carcinoma + neoplastic nodule, dosed 103 weeks, study length 104 weeks
  TD50: 9850 mg/kg/day

## CC1=CC(=O)CC(C)(C)C1
mouse, strain B6C3F1, females, by gavage, site: any site (literature study), lesion: several types, types named in the paper, dosed 103 weeks, study length 104 weeks
  carcinogen call: negative (inactive)
mouse, strain B6C3F1, females, by gavage, site: liver, lesion: hepatocellular adenoma + hepatocellular carcinoma + neoplastic nodule, dosed 103 weeks, study length 104 weeks
  TD50: 2740 mg/kg/day
mouse, strain B6C3F1, males, by gavage, site: all sites, lesion: leukemia, NOS + malignant lymphoma, histiocytic type + malignant lymphoma, mixed type + malignant lymphoma, lymphocytic type, dosed 103 weeks, study length 104 weeks
  TD50: 236 mg/kg/day
mouse, strain B6C3F1, males, by gavage, site: all sites, lesion: malignant lymphoma, histiocytic type + malignant lymphoma, mixed type + malignant lymphoma, lymphocytic type, dosed 103 weeks, study length 104 weeks
  TD50: 203 mg/kg/day
mouse, strain B6C3F1, males, by gavage, site: all sites, lesion: malignant lymphoma, histiocytic type, dosed 103 weeks, study length 104 weeks
  TD50: 244 mg/kg/day
mouse, strain B6C3F1, males, by gavage, site: liver, lesion: hepatocellular adenoma + hepatocellular carcinoma + neoplastic nodule, dosed 103 weeks, study length 104 weeks
  TD50: 573 mg/kg/day
mouse, strain B6C3F1, males, by gavage, site: liver, lesion: hepatocellular adenoma + hepatocellular carcinoma, dosed 103 weeks, study length 104 weeks
  TD50: 573 mg/kg/day
mouse, strain B6C3F1, males, by gavage, site: skin + subcutaneous tissue, lesion: fibroma + fibrosarcoma, dosed 103 weeks, study length 104 weeks
  TD50: 840 mg/kg/day
mouse, strain B6C3F1, males, by gavage, site: skin + subcutaneous tissue, lesion: fibroma + neurofibrosarcoma + fibrosarcoma + sarcoma, dosed 103 weeks, study length 104 weeks
  TD50: 882 mg/kg/day
mouse, strain B6C3F1, males, by gavage, site: skin + subcutaneous tissue, lesion: neurofibrosarcoma + fibrosarcoma + sarcoma, dosed 103 weeks, study length 104 weeks
  TD50: 1210 mg/kg/day
mouse, strain B6C3F1, males, by gavage, site: subcutaneous tissue, lesion: fibroma, dosed 103 weeks, study length 104 weeks
  TD50: 1210 mg/kg/day
mouse, strain B6C3F1, males, by gavage, site: subcutaneous tissue, lesion: fibrosarcoma + fibroma + neurofibrosarcoma + sarcoma, dosed 103 weeks, study length 104 weeks
  TD50: 703 mg/kg/day
mouse, strain B6C3F1, males, by gavage, site: subcutaneous tissue, lesion: fibrosarcoma + fibroma, dosed 103 weeks, study length 104 weeks
  TD50: 654 mg/kg/day
mouse, strain B6C3F1, males, by gavage, site: subcutaneous tissue, lesion: fibrosarcoma + neurofibrosarcoma + sarcoma, dosed 103 weeks, study length 104 weeks
  TD50: 1260 mg/kg/day
mouse, strain B6C3F1, males, by gavage, site: subcutaneous tissue, lesion: fibrosarcoma, dosed 103 weeks, study length 104 weeks
  TD50: 1170 mg/kg/day
rat, strain Fischer 344, females, by gavage, site: any site (literature study), lesion: several types, types named in the paper, dosed 103 weeks, study length 105 weeks
  TD50: 16600 mg/kg/day (inactive)
rat, strain Fischer 344, males, by gavage, site: any site (literature study), lesion: several types, types named in the paper, dosed 103 weeks, study length 105 weeks
  TD50: 237 mg/kg/day
rat, strain Fischer 344, males, by gavage, site: kidney + preputial gland, lesion: tubular-cell adenoma + tubular-cell adenocarcinoma + carcinoma, NOS, dosed 103 weeks, study length 105 weeks
  TD50: 774 mg/kg/day
rat, strain Fischer 344, males, by gavage, site: kidney, lesion: tubular-cell adenoma + tubular-cell adenocarcinoma, dosed 103 weeks, study length 105 weeks
  TD50: 1210 mg/kg/day
rat, strain Fischer 344, males, by gavage, site: liver, lesion: hepatocellular adenoma + hepatocellular carcinoma + neoplastic nodule, dosed 103 weeks, study length 105 weeks
  TD50: 9080 mg/kg/day
rat, strain Fischer 344, males, by gavage, site: preputial gland, lesion: carcinoma, NOS, dosed 103 weeks, study length 105 weeks
  TD50: 2250 mg/kg/day

## COc1ccccc1N1CCN(CCCNc2cc(=O)n(C)c(=O)n2C)CC1
rat, strain Slc-Wistar, females, by gavage, site: liver, lesion: one or several types, types not named, dosed 52 weeks, study length 52 weeks
  carcinogen call: negative (inactive)
rat, strain Slc-Wistar, males, by gavage, site: liver, lesion: one or several types, types not named, dosed 52 weeks, study length 52 weeks
  carcinogen call: negative (inactive)
